Test results: ChEMBL document CHEMBL1201862, “PubChem BioAssay data set” (2004)
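Interpolation was linear, between the two tested concentrations surrounding the appropriate level; five concentrations were tested over 48 hours in 96-well plates. GI50 is the concentration that inhibits growth by half.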 Active and inactive are the calls of the source. Rule as the data show it: active = GI50 up to about 1.1 µM and inactive = higher.

Experiments:
Assay in all cases: NCI tumour cell line growth inhibition, 48 h
[1] = test system: IGROV-1
[2] = test system: MDA-MB-435
[3] = test system: OVCAR-5
[4] = test system: SN12C
[5] = test system: SK-MEL-5
[6] = test system: ACHN
[7] = test system: Malme-3M
[8] = test system: SF-539
[9] = test system: COLO 205
[10] = test system: UACC-62
[11] = test system: NCI-H522
[12] = test system: HOP-92
[13] = test system: SNB-19
[14] = test system: PC-3
[15] = test system: RPMI-8226
[16] = test system: EKVX
[17] = test system: SR
[18] = test system: HT-29
[19] = test system: NCI-H460
[20] = test system: SK-MEL-2
[21] = test system: UACC-257
[22] = test system: MDA-MB-231
[23] = test system: BT-549
[24] = test system: MCF7
[25] = test system: NCI/ADR-RES
[26] = test system: LOX IMVI
[27] = test system: NCI-H23
[28] = test system: SK-MEL-28
[29] = test system: KM12
[30] = test system: HCT-116
[31] = test system: M14
[32] = test system: A549
[33] = test system: HL-60
[34] = test system: OVCAR-8
[35] = test system: HCC 2998
[36] = test system: NCI-H226
[37] = test system: HCT-15
[38] = test system: A498
[39] = test system: TK-10
[40] = test system: MDA-N
[41] = test system: U-251
[42] = test system: K562
[43] = test system: UO-31
[44] = test system: CAKI-1
[45] = test system: MOLT-4
[46] = test system: Hs-578T
[47] = test system: OVCAR-4
[48] = test system: SF-268
[49] = test system: 786-0
[50] = test system: CCRF-CEM
[51] = test system: SW-620
[52] = test system: SNB-75
[53] = test system: OVCAR-3
[54] = test system: SF-295
[55] = test system: DU-145
[56] = test system: SK-OV-3
[57] = test system: RXF 393
[58] = test system: HOP-62

CC(C)C1(Cl)CCC2C3(C)CCCC(C)(C(=O)O)C3CC(Cl)C2(Cl)C1Cl (stereo unspecified)
GI50 [1]: 54.7 µM (inactive)
GI50 [2]: 25.9 µM (inactive)
GI50 [3]: 22.4 µM (inactive)
GI50 [4]: 39.2 µM (inactive)
GI50 [5]: 25.8 µM (inactive)
GI50 [6]: 43.2 µM (inactive)
GI50 [7]: 25.5 µM (inactive)
GI50 [8]: 21.7 µM (inactive)
GI50 [9]: 18 µM (inactive)
GI50 [10]: 24.7 µM (inactive)
GI50 [11]: 20 µM (inactive)
GI50 [12]: 37.4 µM (inactive)
GI50 [13]: 34.8 µM (inactive)
GI50 [14]: 34.6 µM (inactive)
GI50 [15]: 20.8 µM (inactive)
GI50 [16]: 21.5 µM (inactive)
GI50 [17]: 25.6 µM (inactive)
GI50 [18]: 14.7 µM (inactive)
GI50 [19]: 23.9 µM (inactive)
GI50 [20]: 31.4 µM (inactive)
GI50 [21]: 31.1 µM (inactive)
GI50 [22]: 33.3 µM (inactive)
GI50 [23]: 48.8 µM (inactive)
GI50 [24]: 30.5 µM (inactive)
GI50 [25]: 32.5 µM (inactive)
GI50 [26]: 33.8 µM (inactive)
GI50 [27]: 54.2 µM (inactive)
GI50 [28]: 16.7 µM (inactive)
GI50 [29]: 18.2 µM (inactive)
GI50 [30]: 28.2 µM (inactive)
GI50 [31]: 23.1 µM (inactive)
GI50 [32]: 23.5 µM (inactive)
GI50 [33]: 22.3 µM (inactive)
GI50 [34]: 38.7 µM (inactive)
GI50 [35]: 27.4 µM (inactive)
GI50 [36]: 20.9 µM (inactive)
GI50 [37]: 36.6 µM
GI50 [38]: 41.7 µM (inactive)
GI50 [39]: 43.3 µM (inactive)
GI50 [40]: 32.4 µM (inactive)
GI50 [41]: 20.7 µM (inactive)
GI50 [42]: 24.3 µM (inactive)
GI50 [43]: 32.1 µM (inactive)
GI50 [44]: 43 µM (inactive)
GI50 [45]: 19.4 µM (inactive)
GI50 [46]: 37.5 µM (inactive)
GI50 [47]: 24.8 µM (inactive)
GI50 [48]: 45 µM (inactive)
GI50 [49]: 32.6 µM (inactive)
GI50 [50]: 22.8 µM (inactive)
GI50 [51]: 24.8 µM (inactive)

COc1cccc(-c2nc(-c3cnccn3)n(C/C=C/c3ccccc3)n2)c1
GI50 [1]: > 10 µM (inactive)
GI50 [2]: > 10 µM (inactive)
GI50 [3]: > 10 µM (inactive)
GI50 [4]: > 10 µM (inactive)
GI50 [6]: > 10 µM (inactive)
GI50 [7]: > 10 µM (inactive)
GI50 [8]: > 10 µM (inactive)
GI50 [10]: > 10 µM (inactive)
GI50 [11]: > 10 µM (inactive)
GI50 [12]: 1.86 µM (inactive)
GI50 [13]: > 10 µM (inactive)
GI50 [14]: > 10 µM (inactive)
GI50 [16]: > 10 µM (inactive)
GI50 [17]: > 10 µM (inactive)
GI50 [18]: > 10 µM (inactive)
GI50 [19]: > 10 µM (inactive)
GI50 [20]: > 10 µM (inactive)
GI50 [21]: > 10 µM (inactive)
GI50 [23]: > 10 µM (inactive)
GI50 [24]: > 10 µM (inactive)
GI50 [25]: > 10 µM (inactive)
GI50 [26]: > 10 µM (inactive)
GI50 [27]: > 10 µM (inactive)
GI50 [29]: > 10 µM (inactive)
GI50 [31]: > 10 µM (inactive)
GI50 [32]: > 10 µM (inactive)
GI50 [34]: > 10 µM (inactive)
GI50 [52]: 6.32 µM (inactive)
GI50 [35]: > 10 µM (inactive)
GI50 [36]: > 10 µM (inactive)
GI50 [53]: > 10 µM (inactive)
GI50 [37]: > 10 µM
GI50 [39]: > 10 µM (inactive)
GI50 [54]: > 10 µM (inactive)
GI50 [40]: > 10 µM (inactive)
GI50 [41]: > 10 µM (inactive)
GI50 [42]: > 10 µM (inactive)
GI50 [43]: > 10 µM (inactive)
GI50 [45]: > 10 µM (inactive)
GI50 [46]: > 10 µM (inactive)
GI50 [47]: > 10 µM (inactive)
GI50 [48]: > 10 µM (inactive)
GI50 [49]: > 10 µM (inactive)
GI50 [50]: > 10 µM (inactive)
GI50 [51]: > 10 µM (inactive)

COc1cc(C(=O)OCCn2[nH]c(-c3ccc(Cl)cc3)nc2=S)cc(OC)c1OC
GI50 [2]: 51.1 µM (inactive)
GI50 [3]: > 100 µM (inactive)
GI50 [4]: 91.8 µM (inactive)
GI50 [5]: 48.2 µM (inactive)
GI50 [6]: > 100 µM (inactive)
GI50 [7]: 45.5 µM (inactive)
GI50 [8]: 60.8 µM (inactive)
GI50 [9]: > 100 µM (inactive)
GI50 [10]: > 100 µM (inactive)
GI50 [11]: 27.7 µM (inactive)
GI50 [12]: 27.5 µM (inactive)
GI50 [13]: > 100 µM (inactive)
GI50 [14]: > 100 µM (inactive)
GI50 [16]: 91.6 µM (inactive)
GI50 [17]: 37.8 µM (inactive)
GI50 [18]: > 100 µM (inactive)
GI50 [19]: > 100 µM (inactive)
GI50 [55]: 23.6 µM (inactive)
GI50 [20]: > 100 µM (inactive)
GI50 [21]: 44.1 µM (inactive)
GI50 [22]: > 100 µM (inactive)
GI50 [23]: 31.3 µM (inactive)
GI50 [24]: > 100 µM (inactive)
GI50 [25]: 57 µM (inactive)
GI50 [26]: 72.4 µM (inactive)
GI50 [27]: 49.1 µM (inactive)
GI50 [28]: 42.7 µM (inactive)
GI50 [29]: > 100 µM (inactive)
GI50 [30]: > 100 µM (inactive)
GI50 [31]: 38.3 µM (inactive)
GI50 [32]: 98.6 µM (inactive)
GI50 [33]: 38.9 µM (inactive)
GI50 [34]: 90.8 µM (inactive)
GI50 [35]: 56.4 µM (inactive)
GI50 [36]: 58.7 µM (inactive)
GI50 [53]: 51.3 µM (inactive)
GI50 [37]: 36 µM
GI50 [38]: > 100 µM (inactive)
GI50 [56]: > 100 µM (inactive)
GI50 [39]: 54.3 µM (inactive)
GI50 [54]: 44.7 µM (inactive)
GI50 [40]: 49 µM (inactive)
GI50 [41]: 83.8 µM (inactive)
GI50 [42]: 47.8 µM (inactive)
GI50 [43]: 1.3 µM (inactive)
GI50 [44]: 37.7 µM (inactive)
GI50 [45]: 22.9 µM (inactive)
GI50 [46]: 47.8 µM (inactive)
GI50 [47]: 95.5 µM (inactive)
GI50 [48]: 34.3 µM (inactive)
GI50 [49]: 62.8 µM (inactive)
GI50 [57]: 1.33 µM (inactive)
GI50 [58]: > 100 µM (inactive)
GI50 [50]: 33 µM (inactive)
GI50 [51]: > 100 µM (inactive)
